Values quoted from earlier work in patent publication US7235236B2, “Polynucleotide encoding human adenylylcyclase VI and uses thereof for enhancing cardiac function” (priority 1995, dated 2007).

Test system: GRK
Settings: chronic reduction of beta1-AR activation

In the case of CC(C)NCC(O)COc1ccc(COCCOC(C)C)cc1 (stereo not shown) [bisoprolol], the “GRK activity after chronic treatment” value is given as “downregulation of GRK activity”.
